According to paper PMC11206519, “Multi-Endpoint Toxicological Assessment of Chrysin Loaded Oil-in-Water Emulsion System in Different Biological Models” (Nanomaterials, 2024):
pIC50: −log10 of the molar value.

Assays:
RAW 264.7 = experiment: MTT cytotoxicity assay; format: cell-based, murine; conditions: Mus musculus, RAW264.7, 48 h
Procedure: RAW 264.7 (murine macrophage-like cell), 3T3-L1 adipocyte (murine adipocyte), HEK293 (human embryonic kidney cell), and LX-2 (human hepatic stellate cell) were obtained from American Type Culture Collection (ATCC, Manassas, VA, USA). RAW 264.7 macrophages were cultured as a suspension culture in an ultra-low attachment culture dish, whereas the others were cultured as adherent cells in a cell culture flask. The cells were grown in Dulbecco’s Modified Eagle Medium (DMEM) with L-glutamine, supplemented with 10% fetal bovine serum (FBS) (RAW 264.7, HEK293, and LX-2) or 10% fetal calf serum (FCS) (3T3-L1) and 1% penicillin under 5% CO2, at 37 °C. […] Blank-ES was used as a vehicle control. The amount of blank-ES was equal to chrysin-ES amount that was used for the treatment. The cytotoxicity of chrysin, chrysin-ES, and blank-ES in each cell was determined using an MTT assay. […] Then, the solution was gently removed, and the formazan crystal was dissolved with dimethyl sulfoxide (DMSO). The soluble formazan was measured using a microplate reader (Bio-TEK Synergy Hybrid Reader H4) at 540 nm. The cell viability is directly related to the absorbance of formazan. The percentage of cell viability was calculated using the following equation. Cell viability (%) = (Absorbance (sample))/(Absorbance (control)) × 100

[1] = system: D. melanogaster trans-heterozygous mwh+/+flr3 larvae of the HB cross; experiment: SMART wing spot test, anti-mutagenicity, HB cross
Procedure: The somatic mutation and recombination test, or the wing spot test, using D. melanogaster was employed as an in vivo system to assess the mutagenicity and anti-mutagenicity of chrysin-ES. Two different crosses were conducted: (i) a standard cross (ST) and (ii) a high bioactivation cross (HB). The standard cross larvae were obtained from virgin female of flr3/TM3, Ser crossed with males of mwh/mwh, while the HB cross larvae expressing cytochrome P450 enzymes involved in xenobiotic biotransformation were obtained from virgin females of ORR/ORR; flr^3/In (3LR) TM3, ri p^psep l (3)89Aa bx^34e e Bd^s crossed with males of mwh/mwh. The flies were cultured at a constant temperature of 25 ± 1 °C and 60–70% RH at photoperiod 12:12 (light/dark). To evaluate the mutagenicity of chrysin and chrysin-ES, a hundred larva F1 progenies derived from the above crossing were fed with instant Drosophila medium (Formula 4-24®), Carolina, Burlington, NC, USA) containing chrysin or chrysin-ES (20–120 µg/mL). DI was used as a negative control, while 20 mM urethane (URE) was used as a positive control. The larvae were reared on each medium until pupation at 25 °C. After that, forty wings of surviving flies in each group were collected for mutant analysis. The mutant spots on the wings, including small single spots, large single spots, and twin spots, were counted. The statistical significance was calculated as previously described by Frei and Würgler.
Furthermore, the anti-mutagenicity of the samples was performed by a similar procedure as mentioned above.

[2] = NMU (sodium nitrite 36 mM: methylurea 10 mM) + 20 μg/mL

In the case of O=c1cc(-c2ccccc2)oc2cc(O)cc(O)c12 [Chrysin, 5,7-dihydroxyflavone], the IC20 (RAW 264.7; decreases cell viability by 20%) was about 43 µM, the pIC50 (RAW 264.7; decreases cell viability by 50%) was about 4.16 and the “Inhibition (%)” value ([1]; EMS 5 mM + 20 μg/mL) was 25%. For the same compound, the “Inhibitory Classification” value ([1]; EMS 5 mM + 20 μg/mL) was “Weak”, the “Mutant spots per individual (number of spots), Large Single” value ([1]; EMS 5 mM + 20 μg/mL) was 1.63 (65) and the “Mutant spots per individual (number of spots), Small Single” value ([1]; EMS 5 mM + 20 μg/mL) was 5.3 (212). The “Mutant spots per individual (number of spots), Total” value (from here on “Mutant spots per individual … Total”) ([1]; EMS 5 mM + 20 μg/mL) was 7.80 (312), the “Mutant spots per individual (number of spots), Twin” value (“Mutant spots per individual … Twin” below) ([1]; EMS 5 mM + 20 μg/mL) was 0.88 (35) and the “Inhibition (%)” value ([1]; EMS 5 mM + 40 μg/mL) was 31%. For the same compound, the “Inhibitory Classification” value ([1]; EMS 5 mM + 40 μg/mL) was “Weak”, the “Mutant spots per individual (number of spots), Large Single” value ([1]; EMS 5 mM + 40 μg/mL) was 0.78 (31) and the “Mutant spots per individual (number of spots), Small Single” value ([1]; EMS 5 mM + 40 μg/mL) was 6.03 (241). The “Mutant spots per individual … Total” value ([1]; EMS 5 mM + 40 μg/mL) was 7.13 (285), the “Mutant spots per individual … Twin” value ([1]; EMS 5 mM + 40 μg/mL) was 0.33 (13) and the “Inhibition (%)” value ([1]; EMS 5 mM + 80 μg/mL) was 60%. The “Inhibitory Classification” value ([1]; EMS 5 mM + 80 μg/mL) was “Moderate”, the “Mutant spots per individual (number of spots), Large Single” value ([1]; EMS 5 mM + 80 μg/mL) was 0.73 (29) and the “Mutant spots per individual (number of spots), Small Single” value ([1]; EMS 5 mM + 80 μg/mL) was 3.23 (129). The “Mutant spots per individual … Total” value ([1]; EMS 5 mM + 80 μg/mL) was 4.18 (167), the “Mutant spots per individual … Twin” value ([1]; EMS 5 mM + 80 μg/mL) was 0.23 (9) and the “Inhibition (%)” value ([1]; EMS 5 mM + 120 μg/mL) was 76%. The “Inhibitory Classification” value ([1]; EMS 5 mM + 120 μg/mL) was “Strong”, the “Mutant spots per individual (number of spots), Large Single” value ([1]; EMS 5 mM + 120 μg/mL) was 0.20 (8) and the “Mutant spots per individual (number of spots), Small Single” value ([1]; EMS 5 mM + 120 μg/mL) was 2.20 (88). The “Mutant spots per individual … Total” value ([1]; EMS 5 mM + 120 μg/mL) was 2.53 (101), the “Mutant spots per individual … Twin” value ([1]; EMS 5 mM + 120 μg/mL) was 0.13 (5) and the “Inhibition (%)” value ([1]; MMC 0.05 mM + 20 μg/mL) was 5%. For the same compound, the “Inhibitory Classification” value ([1]; MMC 0.05 mM + 20 μg/mL) was “Negligible”, the “Mutant spots per individual (number of spots), Large Single” value ([1]; MMC 0.05 mM + 20 μg/mL) was 0.85 (34) and the “Mutant spots per individual (number of spots), Small Single” value ([1]; MMC 0.05 mM + 20 μg/mL) was 3.70 (148). For the same compound, the “Mutant spots per individual … Total” value ([1]; MMC 0.05 mM + 20 μg/mL) was 4.65 (186), the “Mutant spots per individual … Twin” value ([1]; MMC 0.05 mM + 20 μg/mL) was 0.10 (4) and the “Inhibition (%)” value ([1]; MMC 0.05 mM + 40 μg/mL) was 60%. For the same compound, the “Mutant spots per individual (number of spots), Large Single” value ([1]; MMC 0.05 mM + 40 μg/mL) was 0.18 (7), the “Mutant spots per individual (number of spots), Small Single” value ([1]; MMC 0.05 mM + 40 μg/mL) was 1.63 (65) and the “Mutant spots per individual … Total” value ([1]; MMC 0.05 mM + 40 μg/mL) was 1.93 (77). For the same compound, the “Mutant spots per individual … Twin” value ([1]; MMC 0.05 mM + 40 μg/mL) was 0.13 (5), the “Inhibition (%)” value ([1]; MMC 0.05 mM + 80 μg/mL) was 79% and the “Inhibitory Classification” value ([1]; MMC 0.05 mM + 80 μg/mL) was “Strong”. The “Mutant spots per individual (number of spots), Large Single” value ([1]; MMC 0.05 mM + 80 μg/mL) was 0.08 (3), the “Mutant spots per individual (number of spots), Small Single” value ([1]; MMC 0.05 mM + 80 μg/mL) was 0.98 (39) and the “Mutant spots per individual … Total” value ([1]; MMC 0.05 mM + 80 μg/mL) was 1.05 (42). The “Mutant spots per individual … Twin” value ([1]; MMC 0.05 mM + 80 μg/mL) was 0 (0), the “Inhibition (%)” value ([1]; MMC 0.05 mM + 120 μg/mL) was 88% and the “Inhibitory Classification” value ([1]; MMC 0.05 mM + 120 μg/mL) was “Strong”. For the same compound, the “Mutant spots per individual (number of spots), Large Single” value ([1]; MMC 0.05 mM + 120 μg/mL) was 0.03 (1), the “Mutant spots per individual (number of spots), Small Single” value ([1]; MMC 0.05 mM + 120 μg/mL) was 0.55 (22) and the “Mutant spots per individual … Total” value ([1]; MMC 0.05 mM + 120 μg/mL) was 0.58 (23). For the same compound, the “Mutant spots per individual … Twin” value ([1]; MMC 0.05 mM + 120 μg/mL) was 0 (0), the “Inhibition (%)” value [1, 2] was 54% and the “Inhibitory Classification” value [1, 2] was “Moderate”. The “Mutant spots per individual (number of spots), Large Single” value [1, 2] was 0.09 (3), the “Mutant spots per individual (number of spots), Small Single” value [1, 2] was 0.78 (25) and the “Mutant spots per individual … Total” value [1, 2] was 0.88 (28). The “Mutant spots per individual … Twin” value [1, 2] was 0 (0), the “Inhibitory Classification” value ([1]; NMU (sodium nitrite 36 mM: methylurea 10 mM) + 20 μg/mL, listed as chrysin) was “moderate (41–60%)” and the “Inhibition (%)” value ([1]; NMU + 40 μg/mL) was 80%. The “Inhibitory Classification” value ([1]; NMU + 40 μg/mL) was “Strong”, the “Mutant spots per individual (number of spots), Large Single” value ([1]; NMU + 40 μg/mL) was 0.05 (2) and the “Mutant spots per individual (number of spots), Small Single” value ([1]; NMU + 40 μg/mL) was 0.30 (12). For the same compound, the “Mutant spots per individual … Total” value ([1]; NMU + 40 μg/mL) was 0.38 (15), the “Mutant spots per individual … Twin” value ([1]; NMU + 40 μg/mL) was 0.03 (1) and the “Inhibition (%)” value ([1]; NMU + 80 μg/mL) was 81%. For the same compound, the “Inhibitory Classification” value ([1]; NMU + 80 μg/mL) was “Strong”, the “Mutant spots per individual (number of spots), Large Single” value ([1]; NMU + 80 μg/mL) was 0.04 (1) and the “Mutant spots per individual (number of spots), Small Single” value ([1]; NMU + 80 μg/mL) was 0.32 (9). The “Mutant spots per individual … Total” value ([1]; NMU + 80 μg/mL) was 0.36 (10), the “Mutant spots per individual … Twin” value ([1]; NMU + 80 μg/mL) was 0 (0) and the “Inhibition (%)” value ([1]; NMU + 120 μg/mL) was 95%. For the same compound, the “Inhibitory Classification” value ([1]; NMU + 120 μg/mL) was “Strong”, the “Mutant spots per individual (number of spots), Large Single” value ([1]; NMU + 120 μg/mL) was 0.05 (2) and the “Mutant spots per individual (number of spots), Small Single” value ([1]; NMU + 120 μg/mL) was 0.05 (2). For the same compound, the “Mutant spots per individual … Total” value ([1]; NMU + 120 μg/mL) was 0.10 (4), the “Mutant spots per individual … Twin” value ([1]; NMU + 120 μg/mL) was 0 (0) and the “Inhibition (%)” value ([1]; URE 20 mM + 20 μg/mL) was 84%. For the same compound, the “Inhibitory Classification” value ([1]; URE 20 mM + 20 μg/mL) was “Strong”, the “Mutant spots per individual (number of spots), Large Single” value ([1]; URE 20 mM + 20 μg/mL) was 0.15 (6) and the “Mutant spots per individual (number of spots), Small Single” value ([1]; URE 20 mM + 20 μg/mL) was 1.55 (62). For the same compound, the “Mutant spots per individual … Total” value ([1]; URE 20 mM + 20 μg/mL) was 1.70 (68), the “Mutant spots per individual … Twin” value ([1]; URE 20 mM + 20 μg/mL) was 0 (0) and the “Inhibition (%)” value ([1]; URE 20 mM + 40 μg/mL) was 84%. For the same compound, the “Inhibitory Classification” value ([1]; URE 20 mM + 40 μg/mL) was “Strong”, the “Mutant spots per individual (number of spots), Large Single” value ([1]; URE 20 mM + 40 μg/mL) was 0 (0) and the “Mutant spots per individual (number of spots), Small Single” value ([1]; URE 20 mM + 40 μg/mL) was 1.75 (70). The “Mutant spots per individual … Total” value ([1]; URE 20 mM + 40 μg/mL) was 1.75 (70), the “Mutant spots per individual … Twin” value ([1]; URE 20 mM + 40 μg/mL) was 0 (0) and the “Inhibition (%)” value ([1]; URE 20 mM + 80 μg/mL) was 92%. The “Inhibitory Classification” value ([1]; URE 20 mM + 80 μg/mL) was “Strong”, the “Mutant spots per individual (number of spots), Large Single” value ([1]; URE 20 mM + 80 μg/mL) was 0.03 (1) and the “Mutant spots per individual (number of spots), Small Single” value ([1]; URE 20 mM + 80 μg/mL) was 0.88 (35). For the same compound, the “Mutant spots per individual … Total” value ([1]; URE 20 mM + 80 μg/mL) was 0.90 (36), the “Mutant spots per individual … Twin” value ([1]; URE 20 mM + 80 μg/mL) was 0 (0) and the “Inhibition (%)” value ([1]; URE 20 mM + 120 μg/mL) was 89%. The “Inhibitory Classification” value ([1]; URE 20 mM + 120 μg/mL) was “Strong”, the “Mutant spots per individual (number of spots), Large Single” value ([1]; URE 20 mM + 120 μg/mL) was 0.08 (3) and the “Mutant spots per individual (number of spots), Small Single” value ([1]; URE 20 mM + 120 μg/mL) was 1.08 (43). For the same compound, the “Mutant spots per individual … Total” value ([1]; URE 20 mM + 120 μg/mL) was 1.18 (47) and the “Mutant spots per individual … Twin” value ([1]; URE 20 mM + 120 μg/mL) was 0.03 (1).
